{"source": "patent US7456292B2", "about": "“Hydroxamic acid-containing amino acid derivatives” (Bexel Pharmaceuticals, Inc., priority 2005, dated 2008)", "key": {"[1]": {"tested_on": "TNF-α", "test": "LPS induced TNF-α in hPBMC", "type": "cell-based", "settings": "Homo sapiens, read-out: Inhibition (%) TNF-α", "protocol": "(§1) Human PBMC monocyte cells were cultured and incubated with compounds at different concentrations. Cells were then challenged with lipopolysaccharides (LPS) at a concentration of (1 μg/mL) for 24 hours. Cell supernatants were then analyzed for the presence of TNF-α, IL-6 and IL-1β cytokines by antibody directed enzyme-linked immunoassay. Dexamethasone was used as a positive control in the experiments."}, "[2]": {"tested_on": "IL-12", "test": "IL-12 secretion following LPS stimulation of mouse spleenic macrophages", "type": "cell-based", "settings": "mouse splenic macrophages stimulated with LPS for 72 hrs", "description": "Compound 6 of this class inhibited IL-12 production in mouse splenic macrophages stimulated with LPS for 72 hrs."}, "[3]": {"tested_on": "T cell proliferation", "test": "Inhibition of T cell proliferation", "type": "cell-based, mice", "protocol": "SJL mice were immunized with keyhole limpet hemocyanin (KLH) in complete Freund's adjuvant (CFA). 12 days later regional lymph nodes were isolated and a proliferative response to KLH in the presence or absence of drug was performed (in presence of 3H thymidine). The results are expressed at Stimulation index (CPM+antigen/CPM no antigen). Similarly, mitogen induced concanavalin A (CON-A), IL-4, IL-2 induced T cell proliferation was measured in presence of compounds are shown in Table VI."}, "[4]": {"tested_on": "TNF-α", "test": "LPS induced TNF-α in THP-1 monocytic cells", "type": "cell-based", "settings": "Homo sapiens, LPS 1 μg/mL 24 hours", "protocol": "as §1, with “THP-1” for “PBMC”, “TNF-α” for “TNF-α, IL-6 and IL-1β”, “immunoassay from R & D System, Minneapolis, USA.” for “immunoassay. Dexamethasone was used as a positive control in the experiments.”"}, "[5]": {"tested_on": "IL-6", "test": "LPS induced IL-6 in hPBMC", "type": "cell-based", "settings": "Homo sapiens, LPS 1 μg/mL 24 hours", "protocol": "as §1"}, "[6]": {"tested_on": "IL-1β", "test": "LPS induced IL-1β in hPBMC", "type": "cell-based", "settings": "Homo sapiens, LPS 1 μg/mL 24 hours", "protocol": "as §1"}, "[7]": {"tested_on": "TNF-α", "test": "LPS induced sepsis model in mice, serum TNF-α", "type": "in vivo", "settings": "Mus musculus, SW mice, serum after 90 min", "protocol": "(§2) SW mice were orally treated with vehicle, dexamethasone (5 mg/kg) and compounds at a dose of 50 mg/kg body weight one hour before LPS injection (10 μg/mouse, ip) and blood was collected after 90 min and measured serum TNF-α and IL-6 levels by ELISA."}, "[8]": {"tested_on": "IL-6", "test": "LPS induced sepsis model in mice, serum IL-6", "type": "in vivo", "settings": "Mus musculus; SW mice, oral 5 mg/kg bw one hour before LPS, serum after 90 min", "protocol": "as §2"}, "[9]": {"tested_on": "carrageenan induced paw inflammation", "test": "Carrageenan induced inflammation in rats", "type": "in vivo", "settings": "Sprague-Dowley rats, 50 mg/kg oral, paw volume after 2 and 3 hours", "protocol": "Sprague-Dowley rats with average weight of 250 g (6-7 weeks of age) were randomized in three groups, and given 50 mg/kg oral dose of compound of example 6. Thirty minutes later carrageenan was administered in the sub-planter region of right hind paws. The control group received equal volume of water without any compound. Paw volume was measured after 2 and 3 hours. Dexamethasone at a concentration of 5 mg/kg was used as a positive control in this experiment."}, "[10]": {"tested_on": "Collagen Induced Arthritis Model", "test": "Collagen induced arthritis model", "type": "in vivo", "settings": "male DBA/1 Lac mice, oral 50 mg/kg daily", "protocol": "Arthritis induced in male DBA/1 Lac mice with bovine collagen (100 μg/mouse). Booster dose was given on Day 21 and started treatment when clinical score was about 2. […] Dexamethasone was kept as positive control. Severity of each paw score was defined from 0=no erythma to 4=severe arthritis for the swollen paws with a maximum possible score of 16 for 4 paws (4×4) in one animal."}, "[11]": {"tested_on": "gamma interferon", "test": "Myelin basic protein (MBP) induced gamma interferon in lymph node cultures", "type": "cell-based", "settings": "MBP stimulated lymph node cells of SJL mice, 72 h, ELISA", "protocol": "(§3) FIG. 6: Inhibition of myelin basic protein (MBP) induced […] mice were immunized with 400 μg of myelin basic protein (MBP) in CFA on day 0 and 7 and regional lymph nodes were harvested on day 14 and cultured with MBP in the presence or absence of compound 22 for 72 h. Lymphocyte proliferation was determined by thymidine incorporation assay. Cell culture supernatants from MBP stimulated and compound 22 treated cells were assayed for gamma interferon using ELISA."}, "[12]": {"tested_on": "IL-12 (p40)", "test": "CD40 ligand-mediated synthesis of IL-12 (p40) in mouse peritoneal macrophages", "type": "cell-based", "settings": "mouse peritoneal macrophages stimulated with 2 μg/mL soluble CD40 ligand", "protocol": "To further confirm the inhibition of IL-12 secretion mediated by CD40, induction of IL-12 (p40) was examined following activation of macrophages by soluble CD40 ligand, CD 154. Mouse peritoneal macrophages, were stimulated with 2 μg/mL of soluble […] (Immunex) in the presence of compound 22."}, "[13]": {"tested_on": "intestinal bowel disease (IBD) induced by dextran sodium sulphate (DSS)", "test": "DSS induced inflammatory bowel disease in mice", "type": "in vivo", "settings": "male SW mice, 4% DSS, daily dose 50 mg/kg body weight in PEG400", "protocol": "DAI is comprised of factors such as body weight, stool quality and occult blood content. A 4% solution of DSS was provided as drinking water and DAI was monitored twice a week for the induction of disease. Following this the animals were treated with a daily dose 50 mg/kg body weight of compound 22 in PEG400 formulations and the activity index was monitored twice a week."}, "[14]": {"tested_on": "Lymphocyte proliferation", "test": "MBP induced lymphocyte proliferation (thymidine incorporation)", "type": "cell-based", "settings": "MBP stimulated lymph node cells of SJL mice, 72 h", "protocol": "as §3"}, "[15]": {"settings": "hPBMC, 10 μM, LPS 1 μg/mL 24 hours, * average of two experiments"}}, "note": "Where a name gives a salt, the structure may show the parent alone."}
{"smiles": "Cc1ccc(S(=O)(=O)NC(Cc2ccc(Oc3ccc(C(=O)NO)cc3)cc2)C(=O)N(C)C)cc1", "note": "(stereo not shown) [Compound 14, 4-{4-[2-Dimethylcarbamoyl-2-(toluene-4-sulfonylamino)-ethyl]-phenoxy}-N-hydroxy-benzamide]", "values": [{"measurement": "inhibition at 10 µM", "setting": "[1]; [15]", "value": 22, "unit": "%"}]}
{"smiles": "CS(=O)(=O)c1ccc(C2=C(c3ccccc3)C(=O)OC2)cc1", "note": "[rofecoxib, reference compound]", "values": [{"measurement": "IL-12 production", "setting": "[2]", "value": "no effect was observed"}, {"measurement": "effect on T cells (proliferation)", "setting": "[3]", "value": "did not show any effect on T cells"}]}
{"smiles": "CN(C)C(=O)[C@@H](N)Cc1ccc(Oc2ccc(C(=O)NO)cn2)cc1", "note": "[Compound 21, L-6-[4-(2-amino-2-dimethylcarbamoyl-ethyl)-phenoxy]-N-hydroxy-nicotinamide hydrochloride]", "values": [{"measurement": "inhibition at 10 µM", "setting": "[1]; [15]", "value": 36.1, "unit": "%"}]}
{"smiles": "C[C@@H]1C[C@H]2[C@@H]3CCC4=CC(=O)C=C[C@]4(C)[C@@]3(F)[C@@H](O)C[C@]2(C)[C@@]1(O)C(=O)CO", "note": "[Dexamethasone, reference compound]", "values": [{"measurement": "inhibition at 10 µM", "setting": "[4]", "value": 70, "unit": "%"}, {"measurement": "inhibition at 10 µM", "setting": "[5]", "value": 14, "unit": "%"}, {"measurement": "inhibition at 10 µM", "setting": "[6]", "value": 26, "unit": "%"}, {"measurement": "inhibition at 5 mg/kg", "setting": "[7]; oral 5 mg/kg bw one hour before LPS", "value": 70, "unit": "%"}, {"measurement": "inhibition at 5 mg/kg", "setting": "[8]", "value": 50, "unit": "%"}, {"measurement": "inhibition at 10 µM", "setting": "[1]; [15]", "value": 42, "unit": "%"}]}
{"smiles": "CC(C)OC(=O)C(N)Cc1ccc(Oc2ccc(C(=O)O)cc2)cc1", "note": "(stereo not shown) [Compound 15, 4-[4-(2-Amino-2-isopropoxycarbonylethyl)-phenoxy]-benzoicacid]", "values": [{"measurement": "inhibition at 10 µM", "setting": "[1]; [15]", "value": 40.1, "unit": "%"}]}
{"smiles": "CC(C)OC(=O)C(N)Cc1ccc(Oc2ccc(C(=O)NO)cc2)cc1", "note": "(stereo not shown) [Compound 16, 2-Amino-3-[4-(4-hydroxycarbamoylphenoxy)-phenyl]-propionic acid isopropyl ester]", "values": [{"measurement": "inflammation induced by carrageenan (paw volume)", "setting": "[9]", "value": "substantially lower the inflammation induced by carrageenan"}, {"measurement": "inhibition at 10 µM", "setting": "[1]; [15]", "value": 69.2, "unit": "%"}]}
{"smiles": "Cl.NC(Cc1ccc(Oc2ccc(C(=O)NO)cc2)cc1)C(=O)O", "note": "(stereo not shown) [Compound 9, 2-amino-3-[4-(4-hydroxycarbamoyl-phenoxy)-phenyl]-propionic acid hydrochloric acid salt]", "values": [{"measurement": "arthritic scores", "setting": "[10]", "value": "significantly improved the arthritic scores"}, {"measurement": "inhibition at 10 µM", "setting": "[4]", "value": 20, "unit": "%"}, {"measurement": "inhibition at 50 mg/kg", "setting": "[7]; oral 50 mg/kg body weight one hour before LPS", "value": 45, "unit": "%"}]}
{"smiles": "NC(Cc1ccc(Oc2ccc(C(=O)NO)cc2)cc1)C(=O)[O-].[Na+]", "note": "(stereo not shown) [Compound 22, 2-amino-3-[4-(4-hydroxycarbamoyl-phenoxy)-phenyl]-propionic acid sodium salt]", "values": [{"measurement": "arthritic scores", "setting": "[10]", "value": "significantly improved the arthritic scores"}, {"measurement": "gamma interferon levels", "setting": "[11]", "value": "decrease in gamma interferon levels"}, {"measurement": "inhibition of IL-12 (p40)", "setting": "[12]", "value": "prominent inhibition of IL-12"}, {"measurement": "disease activity index (DAI)", "setting": "[13]", "value": "lowering of disease activity index"}, {"measurement": "T cell proliferative response", "setting": "[14]", "value": "normal T cell proliferative response"}, {"measurement": "inhibition at 10 µM", "setting": "[1]; 24 h", "value": 40, "unit": "%"}]}
